Here are results for 26 molecules from US20260070887A1 (Shenzhen Zhongge Biological Technology Co., Ltd., priority 2022, published 2026).

One may read the IC50 as the concentration that gives 50% inhibition.

Where only a bound is given, the exact number is not on record here.

Chain of KIF18A (Q8NI77 whole entry): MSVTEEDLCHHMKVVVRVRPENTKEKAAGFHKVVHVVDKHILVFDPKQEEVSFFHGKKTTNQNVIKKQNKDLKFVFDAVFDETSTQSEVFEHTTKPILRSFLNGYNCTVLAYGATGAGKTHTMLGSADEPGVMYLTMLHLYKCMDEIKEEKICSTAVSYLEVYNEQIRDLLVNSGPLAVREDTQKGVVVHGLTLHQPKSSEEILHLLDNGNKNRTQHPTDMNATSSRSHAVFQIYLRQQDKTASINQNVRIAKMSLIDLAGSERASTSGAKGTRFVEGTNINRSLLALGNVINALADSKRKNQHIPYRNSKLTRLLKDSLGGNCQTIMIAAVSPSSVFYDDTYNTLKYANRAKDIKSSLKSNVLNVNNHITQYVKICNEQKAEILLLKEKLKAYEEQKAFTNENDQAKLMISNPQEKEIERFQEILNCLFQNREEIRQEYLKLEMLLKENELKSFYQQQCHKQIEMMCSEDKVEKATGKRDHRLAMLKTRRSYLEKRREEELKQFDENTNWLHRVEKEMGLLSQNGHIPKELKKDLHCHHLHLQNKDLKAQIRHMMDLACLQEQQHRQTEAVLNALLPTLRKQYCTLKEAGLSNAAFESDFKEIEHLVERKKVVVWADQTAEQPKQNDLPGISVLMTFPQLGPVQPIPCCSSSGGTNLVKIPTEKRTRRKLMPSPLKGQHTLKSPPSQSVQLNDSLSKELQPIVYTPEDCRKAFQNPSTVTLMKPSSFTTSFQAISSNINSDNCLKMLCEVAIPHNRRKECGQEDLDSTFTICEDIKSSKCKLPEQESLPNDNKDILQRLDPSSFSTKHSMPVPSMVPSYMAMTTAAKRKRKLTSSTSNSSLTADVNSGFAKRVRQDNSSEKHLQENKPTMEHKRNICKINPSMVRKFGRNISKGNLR
Chain of KIF18A (P02550 whole entry partner): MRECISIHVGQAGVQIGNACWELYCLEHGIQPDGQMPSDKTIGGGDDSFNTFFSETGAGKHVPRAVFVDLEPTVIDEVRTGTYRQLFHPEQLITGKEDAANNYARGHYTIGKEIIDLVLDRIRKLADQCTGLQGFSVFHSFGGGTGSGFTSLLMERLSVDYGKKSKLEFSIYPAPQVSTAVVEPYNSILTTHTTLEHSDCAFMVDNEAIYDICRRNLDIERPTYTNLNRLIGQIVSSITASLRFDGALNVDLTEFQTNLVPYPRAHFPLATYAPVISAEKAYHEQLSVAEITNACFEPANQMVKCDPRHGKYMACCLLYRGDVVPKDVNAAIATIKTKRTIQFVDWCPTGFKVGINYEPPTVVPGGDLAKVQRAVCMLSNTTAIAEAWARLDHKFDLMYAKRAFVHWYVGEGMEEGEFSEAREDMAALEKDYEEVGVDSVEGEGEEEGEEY
Chain of KIF18A (P02554 whole entry partner): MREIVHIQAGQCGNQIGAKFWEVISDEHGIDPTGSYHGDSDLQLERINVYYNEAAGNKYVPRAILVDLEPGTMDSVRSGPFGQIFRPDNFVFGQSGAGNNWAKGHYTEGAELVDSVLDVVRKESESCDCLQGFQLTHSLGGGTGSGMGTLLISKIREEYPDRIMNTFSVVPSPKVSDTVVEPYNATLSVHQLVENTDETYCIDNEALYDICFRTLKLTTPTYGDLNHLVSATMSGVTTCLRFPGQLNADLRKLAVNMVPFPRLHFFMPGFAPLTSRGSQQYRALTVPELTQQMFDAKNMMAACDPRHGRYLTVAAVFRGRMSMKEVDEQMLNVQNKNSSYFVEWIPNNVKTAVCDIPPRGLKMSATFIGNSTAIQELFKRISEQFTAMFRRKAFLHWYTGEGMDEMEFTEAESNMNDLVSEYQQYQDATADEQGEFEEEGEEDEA

The target in this experiment is KIF18A (Homo sapiens (Human), UniProt Q8NI77). The experiment is described as follows: KIF18A ATPase activity under tubulin stimulation (ADP-Glo assay). The note with it: KIF18A 30 nM, ATP 150 μM, pig microtubules. Type of experiment: biochemical. The procedure:
This experiment assesses the inhibitory effect of the compounds of the present disclosure on the KIF18A target according to the IC50 values by measuring the KIF18A ATPase activity under tubulin stimulation with the presence of the compounds.
• 1. Preparation of 30 mL of reaction buffer: • (1) 450 μL 1M Tris-HCl (pH=7.5)+300 μL 1M MgCl2+30 μL 10% Pluronic F-68 (ThermoFisher, 24040032-100 ml); • (2) adjusting pH to 7.5, and adding water to adjust the volume to 30 mL. • 2. Preparation of a 5 mg/mL pig microtubule (Microtubules; MT) (Cytoskeleton Inc, MT002) stock solution: • (1) 10 mL PM buffer=150 μL 1 M PIPES (pH 7.0)+20 μL 0.5 mM MgCl2+100 μL 2 mM Taxol (Cytoskeleton Inc, TXD01)+9730 μL water. • (2) MT ([…]): Adding 100 μL PM buffer to prepare a 5 mg/mL stock solution. Keeping the MT (Cytoskeleton Inc, MT002) at room temperature for 10-15 minutes, gently mixing and storing same at −80° C. • 3. Preparation of 2 mL of kinase buffer: 2 mL reaction buffer+1 μL 2 mM Taxol (Cytoskeleton Inc, TXD01)+12 μL 5 mg/mL MT (Cytoskeleton Inc, MT002). • 4. Preparation of 2×KIF18A (30 nM) (ChemPartner, CPB-P22-31645) working solution: 2.4 μL 10 μM KIF18A (ChemPartner, CPB-P22-31645)+800 μL 1× kinase buffer. • 5. Preparation of 2×ATP (150 μM) (Promega, G9101) working solution: 12 μL 10 mM ATP+800 μL 1× kinase buffer. • 6. 25 nL of compound was transferred to a 384-well plate using Echo650. • 7. 2.5 μL of 2×KIF18A from Step 4 (final concentration of 30 nM) was added to the 384-well plate and the plate was incubated at 25° C. for 15 minutes. • 8. 2.5 μL of 2×ATP from Step 5 (final concentration of 150 μM) was added to the 384-well plate and the plate was incubated at 25° C. for 15 minutes. • 9. 5 μL ADP-Glo™ Reagent (Promega, G9101) was added to the 384-well plate and the plate was incubated at 25° C. for 40 minutes. • 10. 10 μL of kinase detection reagent (Promega, G9101) was added to the 384-well plate and the plate was incubated at 25° C. for 40 minutes. • 11. Luminescence values were measured using the EnVision Xcite Multilabel Reader (PerkinElmer, 2105-0020).
As to `O=C(Nc1ccnc(N2CCC(F)(F)CC2)c1)c1ccc(NS(=O)(=O)CCO)cc1OC1CCOCC1` [Example 23, N-(2-(4,4-difluoropiperidin-1-yl)pyridin-4-yl)-4-((2-hydroxyethyl)sulfonamide)-2-((tetrahydro-2H-pyran-4-yl)oxy)benzamide], the IC50 is more than 5000 nM.

Molecule `O=C(Nc1cccc2c1CCN2CC1CC1)c1ccc(NS(=O)(=O)CCO)cc1OC1CCCCC1` [Example 27, 2-(cyclohexyloxy)-N-(1-(cyclopropylmethyl)indolin-4-yl)-4-((2-hydroxyethyl)sulfonamide)benzamide] registered an IC50 of 500 to 5000 nM.

Regarding `O=C(Nc1ccnc(N2CCC(F)(F)CC2)c1)c1ccc(NS(=O)(=O)CCO)cc1OC1CCC(F)(F)CC1` [Example 24, 2-((4,4-difluorocyclohexyl)oxy)-N-(2-(4,4-difluoropiperidin-1-yl)pyridin-4-yl)-4-((2-hydroxyethyl)sulfonamide)benzamide], the IC50 was in the range of 500 to 5000 nM. Molecule `CC1(NS(=O)(=O)c2ccc(C(=O)Nc3cccc4c3ccn4CC3CC3)c(N3CCC4(CC3)CC4)c2)COC1` [Example 44, N-(1-(cyclopropylmethyl)-1H-indol-4-yl)-4-(N-(3-methyloxetan-3-yl)sulfamoyl)-2-(6-azaspiro[2.5]oct-6-yl)benzamide] yielded an IC50 of 50 to 500 nM. The molecule `O=C(Nc1cnc2n1CCCC2)c1ccc(NS(=O)(=O)CCO)cc1N1CCC2(CC1)CC2` [Example 19, 4-((2-hydroxyethyl)sulfonamido)-2-(6-azaspiro[2.5]octan-6-yl)-N-(5,6,7,8-tetrahydroimidazo[1,2-a]pyridin-3-yl)benzamide] had an IC50 of more than 5000 nM. Molecule `Nc1cc(NS(=O)(=O)CCO)cc(N2CCC3(CC2)CC3)c1C(=O)Nc1cccc2c1CCN2CC1CC1` [Example 42] registered an IC50 of 50 to 500 nM. Then `O=C(Nc1cccc2c1CCN2CC1CC1)c1ccc(NS(=O)(=O)CCO)c2c1OCCO2` [Example 25, N-(1-(cyclopropylmethyl)indolin-4-yl)-8-((2-hydroxyethyl)sulfonamido)-2,3-dihydrobenzo[b][1,4]dioxine-5-carboxamide], with more than 5000 nM. `COC1c2cc3c(NC(=O)c4ccc(NS(=O)(=O)CCO)cc4N4CCC5(CC4)CC5)cccc3n2CCC1(F)F` (single isomer, unassigned) [Compound 385-P1, N-(8,8-difluoro-9-(methoxy-d3)-6,7,8,9-tetrahydropyridino[1,2-a]indol-1-yl)-4-((2-hydroxyethyl)sulfonamido)-2-(6-azaspiro[2.5]oct-6-yl)benzamide]: the IC50 lay in the range of 50 to 500 nM. `O=C(Nc1cccc2c1CCN2CC1CC1)c1ccc(NS(=O)(=O)CCO)cc1OC1CCCC1` [Example 30, 2-(cyclopentoxy)-N-(1-(cyclopropylmethyl)indolin-4-yl)-4-((2-hydroxyethyl)sulfonamide)benzamide] returned an IC50 of 500 to 5000 nM.

Consider `O=C(Nc1cccc2c1CCN2CC1CCCC1)c1ccc(NS(=O)(=O)CCO)cc1N1CCC2(CC1)CC2` [Example 15, N-(1-(cyclopentylmethyl)dihydroindol-4-yl)-4-((2-hydroxyethyl)sulfonamido)-2-(6-azaspiro[2.5]oct-6-yl)benzamide], for which the IC50 was in the range of 500 to 5000 nM. The result for `O=C(Nc1cccc2c1CCN2CC1CC1)c1ccc(NS(=O)(=O)CCO)cc1OC1CCC(F)(F)CC1` [Example 29, N-(1-(cyclopropylmethyl)indolin-4-yl)-2-((4,4-difluorocyclohexyl)oxy)-4-((2-hydroxyethyl)sulfonamide)benzamide] reads more than 5000 nM; that for `O=C(Nc1cccc2c1CCN2CC1CCC1)c1ccc(NS(=O)(=O)CCO)cc1N1CCC2(CC1)CC2` [Example 14, N-(1-(cyclobutylmethyl)dihydroindol-4-yl)-4-((2-hydroxyethyl)sulfonamido)-2-(6-azaspiro[2.5]octan-6-yl)benzamide], 50 to 500 nM; that for `Cc1cc(NC(=O)c2ccc(NS(=O)(=O)CCO)cc2OC2CC3(CCC3)C2)nc(N2CCC(F)(F)CC2)n1` [Example 26, N-(2-(4,4-difluoropiperidin-1-yl)-6-methylpyrimidin-4-yl)-4-((2-hydroxyethyl)sulfonamido)-2-(spiro[3.3]heptan-2-yloxy)benzamide], 50 to 500 nM.

In turn, `O=C(Nc1ccnc(N2CCC(F)(F)CC2)c1)c1ccc(NS(=O)(=O)CCO)cc1OC1CCCC1` [Example 28, 2-(cyclopentoxy)-N-(2-(4,4-difluoropiperidin-1-yl)pyridin-4-yl)-4-((2-hydroxyethyl)sulfonamide)benzamide] gave an IC50 of 500 to 5000 nM.

As for `COC1c2cc3c(NC(=O)c4ccc(NS(=O)(=O)CCO)cc4N4CCC5(CC4)CC5)cccc3n2CCC1(F)F` (single isomer, unassigned) [Compound 385-P2, N-(8,8-difluoro-9-(methoxy-d3)-6,7,8,9-tetrahydropyridino[1,2-a]indol-1-yl)-4-((2-hydroxyethyl)sulfonamido)-2-(6-azaspiro[2.5]oct-6-yl)benzamide], the IC50 was 50 to 500 nM. `O=C(Nc1ccnc2c1CCCN2CC1CC1)c1ccc(NS(=O)(=O)CCO)cc1N1CCC2(CC1)CC2` [Example 8, 4-(2-hydroxyethyl)sulfonamido-N-(8-cyclopropylmethyl-5,6,7,8-tetrahydro-1,8-naphthyridin-4-yl)-2-(6-azaspiro[2.5]octan-6-yl)benzamide] displayed an IC50 of 50 to 500 nM.

The molecule `O=C(Nc1ccc2c(c1)CCN2CC1CC1)Nc1ccc(NS(=O)(=O)CCO)cc1N1CCC2(CC1)CC2` [Example 151, N-(4-(3-(1-(cyclopropylmethyl)indolin-5-yl)urea)-3-(6-azaspiro[2.5]octan-6-yl)phenyl)-2-hydroxyethane-1-sulfonamide] showed an IC50 of more than 5000 nM. The result for `O=C(Nc1ccnc(N2CCC(F)(F)CC2)c1)c1ccc(NS(=O)(=O)CCO)cc1OC1CCCCC1` [Example 22] reads 50 to 500 nM; that for `O=C(Nc1ccc2c(c1)N(CC1CC1)CC2)Nc1ccc(NS(=O)(=O)CCO)cc1N1CCC2(CC1)CC2` [Example 150, N-(4-(3-(1-(cyclopropylmethyl)indolin-6-yl)urea)-3-(6-azaspiro[2.5]octan-6-yl)phenyl)-2-hydroxyethane-1-sulfonamide], more than 5000 nM. In turn, `O=C(Nc1cccc(N2CCC(F)(F)CC2)c1)Nc1ccc(NS(=O)(=O)CCO)cc1N1CCC2(CC1)CC2` [Example 147, N-(4-(3-(3-(4,4-difluoropiperidin-1-yl)phenyl)urea)-3-(6-azaspiro[2.5]octan-6-yl)phenyl)-2-hydroxyethane-1-sulfonamide] displayed an IC50 of 500 to 5000 nM.

On to `O=C(Nc1ccnc2c1ccn2CC1CC1)c1ccc(NS(=O)(=O)CCO)cc1N1CCC2(CC1)CC2` [Example 33, N-(1-(cyclopropylmethyl)-1H-pyrrolo[2,3-b]pyridin-4-yl)-4-((2-hydroxyethyl)sulfanilamido)-2-(6-azaspiro[2.5]octan-6-yl)4-benzamide], for which the IC50 is not above 50 nM.

In turn, `CC(C)(C)Cn1ccc2c(NC(=O)c3ccc(NS(=O)(=O)CCO)cc3N3CCC4(CC3)CC4)cccc21` [Example 281, 4-((2-hydroxyethyl)sulfonamido)-N-(1-neopentyl-1H-indol-4-yl)-2-(6-azaspiro[2.5]octan-6-yl)benzamide] came in with an IC50 of 500 to 5000 nM. With `O=C(Nc1cccc2c1C1(CC1)C(=O)N2CC1CC1)c1ccc(NS(=O)(=O)CCO)cc1N1CCC2(CC1)CC2` [Example 17, N-(1′-(cyclopropylmethyl)-2′-oxospiro[cyclopropane-1,3′-indolin]-4′-yl)-4-((2-hydroxyethyl)sulfonamido)-2-(6-azaspiro[2.5]octan-6-yl)benzamide], the half-inhibitory concentration (IC50) was more than 5000 nM. With `Cc1cc(NC(=O)c2ccc(NS(=O)(=O)CCO)cc2N2CCC3(CC2)CC3)c2ccn(CC3CC3)c2n1` [Example 37, N-(1-(cyclopropylmethyl)-6-methyl-1H-pyrrolo[2,3-b]pyridin-4-yl)-4-((2-hydroxyethyl)sulfonamido)-2-(6-azaspiro[2.5]oct-6-yl)benzamide], the IC50 lay in the range of 50 to 500 nM.

For `CN1CCc2c(NC(=O)c3ccc(NS(=O)(=O)CCO)cc3N3CCC4(CC3)CC4)cccc21` [Example 6, 4-(N-(2-hydroxyethyl)sulfonamido)-N-(1-methylindolin-4-yl)-2-(6-azaspiro[2.5]octan-6-yl)benzamide], the concentration for half-maximal inhibition (IC50) was 50 to 500 nM.

As to `Cn1ccc2c(NC(=O)c3ccc(NS(=O)(=O)CCO)cc3N3CCC4(CC3)CC4)cccc21` [Example 10, 4-((2-hydroxyethyl)sulfonamido)-N-(1-methyl-1H-indol-4-yl)-2-(6-azaspiro[2.5]octan-6-yl)benzamide], the IC50 was in the range of 50 to 500 nM.
